Data on one molecule can be found in patent US8562953B2, “Dendritic polymers and magnetic resonance imaging contrast agent employing the same” (Industrial Technology Research Institute, priority 2007, dated 2013).

The data set in a line: T1 relaxation measurements (water proton relaxivity, 20 MHz NMR spectrometer, inversion-recovery). The note with it: Bo = 0.47 T, per Gd^3+ ion. Type of data set: physicochemical. Here is the method: T1 Relaxation Measurements […] […] All of the three generations of cyclosiloxane-core dendrimers (polymer (A)˜(C)) were analyzed and compared with a commercial contrast agent, namely, Magnevist. […] 1, polymers (A)˜(D) for Magnetic resonance imaging (MRI) were developed. It consists of paramagnetic gadolinium ions chelated to DTPA/benzyl-DTPA molecules which in turn were attached to the peripheral of the cyclic dendritic structure.

Each structure is given as a SMILES string.

For the molecule `CNC[C@H](O)[C@@H](O)[C@H](O)[C@H](O)CO.CNC[C@H](O)[C@@H](O)[C@H](O)[C@H](O)CO.O=C([O-])CN(CCN(CC(=O)[O-])CC(=O)O)CCN(CC(=O)[O-])CC(=O)O.[Gd+3]` [Magnevist ™], the “Relaxivity/Gd^3+ ion (ionic) r1” value is 4.2 (mM · s) − 1.
